Among the data in patent US10907191B2, “Method for measuring activity of oxidoreductase” (NATIONAL AGRICULTURE AND FOOD RESEARCH ORGANIZATION, priority 2016, dated 2021) are IC50 values, retold here.

In the assay the target is T1, HAO derived from Nitrosomonas europaea (Nitrosomonas europaea, UniProt Q50925).
T1 construct: HAO was purified from ammonia oxidizing bacteria, and stored in a solution state or after drying; made in house; host or cells: Nitrosomonas europaea cells (native enzyme, not recombinant), purified by column chromatography
T1 sequence (Q50925 25-570): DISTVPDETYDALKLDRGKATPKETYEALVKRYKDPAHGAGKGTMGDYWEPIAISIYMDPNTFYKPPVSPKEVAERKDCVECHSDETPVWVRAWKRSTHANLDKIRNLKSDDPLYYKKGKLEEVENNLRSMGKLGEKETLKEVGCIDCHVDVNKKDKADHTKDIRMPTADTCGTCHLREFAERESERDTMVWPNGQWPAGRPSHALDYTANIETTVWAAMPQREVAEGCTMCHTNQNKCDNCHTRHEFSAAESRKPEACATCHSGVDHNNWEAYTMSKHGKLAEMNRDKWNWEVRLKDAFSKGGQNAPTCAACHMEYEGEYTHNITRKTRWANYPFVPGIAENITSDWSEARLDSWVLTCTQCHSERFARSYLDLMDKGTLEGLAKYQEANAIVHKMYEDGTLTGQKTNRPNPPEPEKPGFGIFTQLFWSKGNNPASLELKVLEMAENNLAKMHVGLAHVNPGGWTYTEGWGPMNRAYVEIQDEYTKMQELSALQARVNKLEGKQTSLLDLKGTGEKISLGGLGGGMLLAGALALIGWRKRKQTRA
The assay can be described thus: Determination of 50% inhibitory concentration against HAO by HAO fluorescence measurement (resazurin method). The format is biochemical. The conditions noted are these: n=4, nonlinear fitting. The method, then:
The HAO fluorescence activity measurement was carried out to the compound library for screening by the resazurin method, and the inhibitory effect of these compounds was verified. The 40 kinds of compounds were dissolved in DMSO for molecular biology (available from Wako Pure Chemical Industries, Ltd.) or ultrapure water at a concentration of 100 mM, and further 2-fold dilution series was prepared with 16 series (100 mM, 50 mM, 25 mM, 12.5 mM, 6.25 mM, 3.13 mM, 1.56 mM, 0.78 mM, 0.39 mM, 0.19 mM, 97 μM, 48.8 μM, 24.4 μM, 12.2 μM, 6.1 μM and 3.1 μM) (final concentration becomes 1/200 concentration thereof). […] The plate was inserted into a fluorescence plate reader attached with a reagent injector (infinite M1000 PRO, manufactured by Tecan Co.), and 25 μL of 4 mM hydroxylamine stock solution for 4-fold dilution was added per well, so that an amount of the hydroxylamine to that of the resazurin was made 10-fold amount (molar ratio) in the reaction system. After 2 hours of incubation, fluorescence measurement (excitation wavelength 562 nm: wavelength width 20 nm, measurement wavelength 592 nm: wavelength width 20 nm) was carried out. Candidate compound A was selected as a inhibitor which decreased the fluorescence intensity to 10% or less compared with without-inhibitor condition. […]
Background: The colour change of resazurin is a common sign of viable cells or microbes.

As a reminder, the IC50 is the midpoint of a concentration-inhibition curve.

In turn, `NNc1ccccc1` [phenylhydrazine] displayed an IC50 of 276 nM.
